Where two headings read alike, the source gives them in different places.
Experiments:
[1] = test system: lipid peroxidation (LPO) of rat brain homogenate; assay: Lipid peroxidation (LPO) of rat brain homogenate, TBARS test; format: biochemical; conditions: substances at 100 μM, mean ± SEM; for % of Activity, Inhibition of LPO, Fe (II): Fe (II)-induced; for % of Activity, Inhibition of LPO, t-BHP: t-BHP-induced
Procedure: To obtain the brain homogenate, rats preliminarily anesthetized with CO2 were decapitated with a guillotine. The brain was homogenized in a buffer containing KCl (120 mM) and HEPES (20 mM), pH = 7.4 at 4 °C, and centrifuged at 1500 rpm to obtain a supernatant. The protein was quantified according to the standard microbiuret method.
To investigate the effect of the compounds on lipid peroxidation (LPO) of rat brain homogenate, we used the modified version of the TBARS test, which is based on the reaction of 2-thiobarbituric acid with the end LPO product—malonic dialdehyde (MDA). The plate well, according to the experimental scheme, contained the compounds under study (100 μM), rat brain homogenate (2 mg/mL), as well as ferrous iron ions ([…]) at a concentration of 500 μM and 1.6 mM tert-butyl hydroxyperoxide as an initiator. After 30 min of incubation at 37 °C, TBARS reagent was added to all samples, incubated for 90 min at 90 °C, and centrifuged at 6000 rpm for 15 min. The optical density of the selected supernatant was measured on a Victor 3 plate reader (Perkin Elmer) at λ = 540 nm.
A rat brain homogenate preparation containing fragments of cell membranes was used as a model system to investigate the antioxidant activity of the hydroxamic acids. To initiate the process of lipid peroxidation, ferrous ions were used to trigger the Fenton reaction, during which the iron valence changes and a highly reactive hydroxyl radical is formed, and tert-butyl hydroxyperoxide as a direct source of free radicals.

[2] = DPPH test of antiradical activity; conditions: substances at 100 μM, mean ± SEM
Procedure: The DPPH test was used to examine antiradical activity based on the ability of a stable chromogen radical of 2,2-diphenyl-1-picrylhydrazyl (DPPH) to remove a hydrogen atom, which is accompanied by a change in the absorption maximum in the electronic absorption spectra. The amount of reduced DPPH was measured using a Cytation ™ 3 multifunctional plate analyzer (BioTek Instruments, Inc., Winooski, VT, USA) at a wavelength of 517 nm.
The antiradical activity of the test compounds was evaluated by the DPPH test, based on the ability of antioxidants to donate an electron to the stable chromogen radical DPPH, converting it into a nonradical form and neutralizing its activity. […] The chromogenic free radical DPPH used in this test has a large size, and substances even with a similar chemical structure may have different antiradical properties due to spatially difficult access.

HDAC6 = biological target: T1, HDAC6 (Homo sapiens, UniProt Q9UBN7); assay: HDAC6 enzyme activity, FLUOR DE LYS fluorometric kit; format: biochemical
T1 construct: purchased Enzo Life Sciences (Enzo Biochem, New York, NY, USA)
T1 sequence (Q9UBN7 1-1215): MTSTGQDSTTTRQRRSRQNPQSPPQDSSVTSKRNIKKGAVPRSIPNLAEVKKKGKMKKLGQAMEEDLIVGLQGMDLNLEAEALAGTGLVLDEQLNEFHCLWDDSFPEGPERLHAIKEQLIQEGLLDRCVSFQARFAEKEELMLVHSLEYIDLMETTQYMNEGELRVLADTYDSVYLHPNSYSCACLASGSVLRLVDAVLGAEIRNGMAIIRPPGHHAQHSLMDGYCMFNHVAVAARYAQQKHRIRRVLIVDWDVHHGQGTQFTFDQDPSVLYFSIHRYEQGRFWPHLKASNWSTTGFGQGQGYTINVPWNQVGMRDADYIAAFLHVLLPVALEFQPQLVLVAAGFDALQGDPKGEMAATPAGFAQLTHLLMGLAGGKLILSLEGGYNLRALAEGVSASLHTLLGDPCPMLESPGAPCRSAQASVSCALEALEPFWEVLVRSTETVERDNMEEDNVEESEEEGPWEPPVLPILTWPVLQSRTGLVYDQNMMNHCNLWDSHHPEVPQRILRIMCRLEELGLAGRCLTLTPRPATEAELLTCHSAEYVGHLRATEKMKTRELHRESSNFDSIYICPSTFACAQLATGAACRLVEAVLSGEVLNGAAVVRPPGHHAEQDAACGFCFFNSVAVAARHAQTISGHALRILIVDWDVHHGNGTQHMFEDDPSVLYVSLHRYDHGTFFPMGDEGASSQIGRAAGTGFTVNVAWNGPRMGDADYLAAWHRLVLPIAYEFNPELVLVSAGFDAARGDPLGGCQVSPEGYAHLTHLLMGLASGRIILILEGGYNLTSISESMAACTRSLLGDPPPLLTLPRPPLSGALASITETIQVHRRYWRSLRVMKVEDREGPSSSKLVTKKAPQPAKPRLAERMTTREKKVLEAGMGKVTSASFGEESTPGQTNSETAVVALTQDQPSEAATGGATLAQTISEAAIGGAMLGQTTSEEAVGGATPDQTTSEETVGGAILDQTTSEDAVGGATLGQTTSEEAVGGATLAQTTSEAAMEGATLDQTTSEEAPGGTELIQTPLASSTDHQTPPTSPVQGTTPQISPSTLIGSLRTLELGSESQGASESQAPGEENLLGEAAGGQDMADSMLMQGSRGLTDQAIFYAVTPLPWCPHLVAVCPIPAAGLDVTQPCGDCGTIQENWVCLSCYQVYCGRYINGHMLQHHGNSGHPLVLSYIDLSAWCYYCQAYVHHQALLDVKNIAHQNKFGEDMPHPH

SH-SY5Y cells = assay: MTT cell viability, SH-SY5Y; format: cell-based; conditions: Homo sapiens, MTT test
Procedure: (§1) The effect of the hydroxamic acids on the viability of cells obtained from human embryonic kidneys, HEK 293, as well as the native form of human neuroblastoma, SH-SY5Y, was evaluated in the MTT test. Using a multifunctional flatbed analyzer, Cytation™3 (BioTek Instruments, Inc., Winooski, VT, USA), the optical density was determined at a wavelength of 530 nm. Based on the dose-dependent curves, the concentration values leading to 50% inhibition of cell population growth (IC50) were calculated.
(§2) Due to the fact that most compounds of the class of hydroxamic acids have high cytotoxic activity and are mainly used as anticancer drugs, their use as neuroprotective drugs is limited. Since the goal of our work was to search for agents for the pharmacological correction of neurodegenerative diseases, a necessary part of the biological activity study of the synthesized hydroxamic acids was to determine their effect on the survival of cell cultures. In our work, we used neuron-like neuroblastoma cells SH-SY5Y and a healthy cell line isolated from the human embryonic kidney, HEK 293.

HEK 293 cells = assay: MTT cell viability, HEK 293; format: cell-based; conditions: Homo sapiens, HEK293; HEK-293, MTT test
Procedure: as §1, §2

β-amyloid 1–40 = β-amyloid 1–40 aggregation, Thioflavin T fluorescence; format: biochemical; conditions: 100 μM, 72 h incubation
Procedure: (§3) The effect of the studied compounds on the aggregation of β-amyloid (1–40/1–42) was analyzed using the method of recording Thioflavin T fluorescence (10 µM) for 72 h at 37 °C. The fluorescence signal was measured using a multifunctional flatbed analyzer, the Cytation ™ 3 (BioTek Instruments, Inc., Winooski, VT, USA), at λex = 450 nm, λem = 480 nm.
(§4) The effect of hydroxamic acids on the stage of aggregation of the pathological β-amyloid peptide was investigated for 72 h using two model systems—fragments Aβ1–40 and Aβ1–42. The fluorophore Thioflavin T was used as an indicator of the ongoing fibrillation process, the interaction of which with proteins in the state of amyloid fibrils leads to an increase in the fluorescence signal.

β-amyloid 1–42 = test system: T2, β-amyloid 1–42; assay: β-amyloid 1–42 aggregation, Thioflavin T fluorescence; format: biochemical; conditions: 100 μM, 72 h incubation
T2 construct: fragments Aβ1–40 and Aβ1–42
Procedure: as §3, §4

[3] = mean ± SEM, read-out: IC50 HDAC6 Inhibitory Activity

SMILES	% of Activity, Inhibition of LPO, Fe (II) [1]	% of Activity, Inhibition of LPO, t-BHP [1]	% of Activity, Antiradical Activity [2]	IC50 (HDAC6; [3])	IC50 (SH-SY5Y cells)	IC50 (HEK 293 cells)	melting point	IC50 (HDAC6; Table S2, used for correlation with pKi, read-out: pIC50 (from experimental HDAC6 IC50) (converted))	Effect on β-amyloid 1–40 aggregation (β-amyloid 1–40)	Effect on β-amyloid 1–42 aggregation (β-amyloid 1–42)
CC1(C)[C@H]2CC[C@](C)(C2)[C@H]1NC(=O)CCCCCCCC(=O)NO [compound 14, N^1-Hydroxy-N^9-((1R,2R,4S)-1,3,3-Trimethylbicyclo[2.2.1]heptan-2-yl)nonanediamide]	37.91 ± 1.08%	22.62 ± 4.31%	- (The ‘-’ mark indicates the lack of activity of the test substances (≤10%) in a particular test)	4.48 ± 0.13 µM	> 100 µM	> 100 µM	44.9 °C	–	–	–
CC1(C)[C@H]2CC[C@](C)(C2)[C@H]1NC(=O)CCCCCCC(=O)NO [compound 13, N^1-Hydroxy-N^8-((1R,2R,4S)-1,3,3-Trimethylbicyclo[2.2.1]heptan-2-yl)octanediamide]	28.90 ± 3.38%	24.02 ± 3.44%	- (The ‘-’ mark indicates the lack of activity of the test substances (≤10%) in a particular test)	9.44 ± 0.74 µM	> 100 µM	> 100 µM	45.1 °C	–	–	–
O=C(NO)C1C2CC3CC(C2)CC1C3 (stereo not drawn) [compound 2, N-Hydroxyadamantane-2-Carboxamide]	- (The ‘-’ mark indicates the lack of activity of the test substances (≤10%) in a particular test)	- (The ‘-’ mark indicates the lack of activity of the test substances (≤10%) in a particular test)	32.02 ± 3.33%	–	> 100 µM	> 100 µM	173.4 °C	–	–	–
CC1(C)[C@@H]2CC[C@@]1(C)[C@H](NC(=O)CCCCCCC(=O)NO)C2 [compound 11, N^1-Hydroxy-N^8-((1R,2R,4R)-1,7,7-Trimethylbicyclo [2.2.1]heptan-2-yl)octanediamide]	28.39 ±7.41%	35.96 ± 1.99%	22.22 ± 1.40%	0.69 ± 0.02 µM	51.9 ± 3.56 µM	> 100 µM	94.8 °C	–	–	–
Cc1c(C)c2c(c(C)c1O)CCC(C)(C(=O)O)O2 (stereo not drawn) [Trolox, reference compound]	97.21 ± 4.09%	99.11 ± 3.72%	–	–	–	–	–	–	–	–
CC1(C)C(NC(=O)/C=C/c2ccc(C(=O)NO)cc2)[C@@]2(C)CC[C@H]1C2 (stereo partly drawn) [compound 24, N-Hydroxy-4-((E)-3-Oxo-3-(((1S,4S)-1,3,3-Trimethylbicyclo[2.2.1]heptan-2-yl)amino)prop-1-en-1-yl)benzamide]	34.16 ± 1.37%	20.63 ± 3.92%	20.32 ± 0.41%	≤ 6.5 µM	52 ± 2.61 µM	60.2 ± 1 µM	–	15.3 µM	noticeable fibrillation inhibition	noticeable fibrillation inhibition
CC1(C)[C@@H]2CC[C@@]1(C)[C@H](NC(=O)CCCCCCCC(=O)NO)C2 [compound 12, N^1-Hydroxy-N^9-((1R,2R,4R)-1,7,7-Trimethylbicyclo [2.2.1]heptan-2-yl)nonanediamide]	44.02 ± 1.57%	30.36 ± 1.98%	- (The ‘-’ mark indicates the lack of activity of the test substances (≤10%) in a particular test)	4.06 ± 0.48 µM	> 100 µM	> 100 µM	50.4 °C	–	–	–
O=C(NO)C12CC3CC(CC(C3)C1)C2 [compound 1, N-Hydroxyadamantane-1-Carboxamide]	- (The ‘-’ mark indicates the lack of activity of the test substances (≤10%) in a particular test)	- (The ‘-’ mark indicates the lack of activity of the test substances (≤10%) in a particular test)	- (The ‘-’ mark indicates the lack of activity of the test substances (≤10%) in a particular test)	–	> 100 µM	> 100 µM	149 to 149.3 °C	–	–	–
CC(/C=C/C(=O)NO)=C\[C@@H](C)C(=O)c1ccc(N(C)C)cc1 [Trich. A, Trichostatin A, reference compound]	- (The ‘-’ mark indicates the lack of activity of the test substances (≤10%) in a particular test)	- (The ‘-’ mark indicates the lack of activity of the test substances (≤10%) in a particular test)	- (The ‘-’ mark indicates the lack of activity of the test substances (≤10%) in a particular test)	–	–	–	–	–	–	–
